Reference: ChEMBL document CHEMBL5390218, “Benzimidazole derivatives as tubulin polymerization inhibitors: Design, synthesis and in vitro cytotoxicity studies” (Bioorg Med Chem Lett, 2023)
pIC50: −log10 of the molar value. Calls of active or inactive are those of the source. No cut-off for these calls is given here.

Legend:
SK-MEL-28 [1] = assay: Induction of cell cycle arrest in human SK-MEL-28 cells assessed as accumulation of cells at G0-G1 phase at 2.5 uM measured after 48 hrs by PI staining based flow cytometry (reference value: 74.32%); type: functional
SK-MEL-28 [2] = assay: Inhibition of cell migration in human SK-MEL-28 cells at 1 to 5 uM incubated for 0 to 48 hrs by wound healing assay; type: functional, cell-based; conditions: dose 1-5 µM, time 0-48 hrs
SK-MEL-28 [3] = assay: Induction of ROS generation in human SK-MEL-28 cells by DCFDA staining based analysis; type: functional, cell-based; conditions: dose 1-5 µM
[4] = Selectivity index, ratio of IC50 for NRK-52E cells to ratio of IC50 for mouse B16-F10 cells; type: toxicity; conditions: NRK-52E cells versus B16-F10 cells, read-out: Selectivity Index
MCF7 = assay: Anticancer activity against human MCF7 cells assessed as inhibition in cell growth measured after 72 hrs by MTT assay; type: functional, cell-based; conditions: MCF7, 72 h
Tubulin (Homo sapiens) = Tubulin (Homo sapiens) (UniProt P68371+Q9H4B7+P0DPH7+P68366+Q13509+Q71U36+P04350+Q3ZCM7+P07437+P68363+Q9BQE3+Q6PEY2+Q13885+Q9BVA1+Q9BUF5); assay: Inhibition of tubulin polymerization (unknown origin) at 12 uM incubated for 1 hr relative to control; type: protein-complex assay
SK-MEL-28 [5] = assay: Induction of cell cycle arrest in human SK-MEL-28 cells assessed as accumulation of cells at S phase at 1 uM measured after 48 hrs by PI staining based flow cytometry (reference value: 16.5%); type: functional
SK-MEL-28 [6] = assay: Induction of apoptosis in human SK-MEL-28 cells assessed as late apoptotic cells at 5 uM incubated for 24 hrs by Annexin V-FITC/PI dual staining based flow cytometry analysis (reference value: 0.1%); type: functional
[7] = Selectivity index, ratio of IC50 for NRK-52E cells to ratio of IC50 for human MCF7 cells; type: toxicity; conditions: rat (NRK-52E), NRK-52E cells versus MCF7 cells, read-out: Selectivity Index
SK-MEL-28 [8] = assay: Induction of apoptosis in human SK-MEL-28 cells assessed as early apoptotic cells at 1 uM incubated for 24 hrs by Annexin V-FITC/PI dual staining based flow cytometry analysis (reference value: 0.0%); type: functional
[9] = Cytotoxicity against NRK-52E cells assessed as inhibition in cell growth measured after 72 hrs by MTT assay; type: toxicity, cell-based; conditions: rat
SK-MEL-28 [10] = assay: Induction of apoptosis in human SK-MEL-28 cells assessed as live cells at 5 uM incubated for 24 hrs by Annexin V-FITC/PI dual staining based flow cytometry analysis (reference value: 99.9%); type: functional
SK-MEL-28 [11] = assay: Induction of cell cycle arrest in human SK-MEL-28 cells assessed as accumulation of cells at G2 phase at 2.5 uM measured after 48 hrs by PI staining based flow cytometry (reference value: 9.17%); type: functional
SK-MEL-28 [12] = assay: Induction of morphological changes in human SK-MEL-28 cells assessed as production of apoptotic bodies by ethidium bromide/acridine orange staining based analysis; type: functional, cell-based; conditions: dose 1-5 µM
SK-MEL-28 [13] = assay: Induction of mitochondrial membrane potential depolarization in human SK-MEL-28 cells assessed as J-monomer level by measuring green fluorescence intensity at 1 uM incubated for 48 hrs by JC-1 staining based analysis (reference value: 0.8%); type: functional
SK-MEL-28 [14] = assay: Induction of morphological changes in human SK-MEL-28 cells assessed as bright pyknotic nuclei at 1 to 5 uM measured after 48 hrs DAPI staining based analysis; type: functional, cell-based; conditions: dose 1-5 µM
SK-MEL-28 [15] = assay: Anticancer activity against human SK-MEL-28 cells assessed as inhibition in cell growth measured after 72 hrs by MTT assay; type: functional, cell-based; conditions: SK-MEL-28, 72 h
SK-MEL-28 [16] = assay: Induction of apoptosis in human SK-MEL-28 cells assessed as early apoptotic cells at 2.5 uM incubated for 24 hrs by Annexin V-FITC/PI dual staining based flow cytometry analysis (reference value: 0.0%); type: functional
SK-MEL-28 [17] = assay: Induction of mitochondrial membrane potential changes in human SK-MEL-28 cells assessed as J-aggregate level by measuring red fluorescence intensity at 2.5 uM incubated for 48 hrs by JC-1 staining based analysis (reference value: 98.9%); type: functional
SK-MEL-28 [18] = assay: Inhibition of cell migration in human SK-MEL-28 cells at 1 to 5 uM incubated for 0 to 48 hrs by phase-contrast microscopy; type: functional, cell-based; conditions: dose 1-5 µM, time 0-48 hrs
SK-MEL-28 [19] = assay: Induction of cell cycle arrest in human SK-MEL-28 cells assessed as accumulation of cells at G2 phase at 1 uM measured after 48 hrs by PI staining based flow cytometry (reference value: 9.17%); type: functional
SK-MEL-28 [20] = assay: Induction of morphological changes in human SK-MEL-28 cells assessed as chromatin condensation by ethidium bromide/acridine orange staining based analysis; type: functional, cell-based; conditions: dose 1-5 µM

What does the source list for `COc1cc(-c2nc3cc(F)ccc3[nH]2)ccc1OCC(=O)N1CCc2ccccc21`?
Activity (SK-MEL-28 [1]): 51.45%; inhibition (SK-MEL-28 [2]): Active; Activity (SK-MEL-28 [3]): Dose-Dependent Effect; selectivity ratio [4]: 17.4; pIC50 (MCF7): 4.75; inhibition (Tubulin (Homo sapiens)): 64.1%; Activity (SK-MEL-28 [5]): 22.3%; Activity (SK-MEL-28 [6]): 35.1%; selectivity ratio [7]: 3; Activity (SK-MEL-28 [8]): 60.8%; IC50 at 72 h [9]: 53.8 µM; Activity (SK-MEL-28 [10]): 50.7%; Activity (SK-MEL-28 [11]): 24.82%; Activity (SK-MEL-28 [12]): Dose-Dependent Effect; Activity (SK-MEL-28 [13]): 2%; Activity (SK-MEL-28 [14]): Active; pIC50 (SK-MEL-28 [15]): 5.57; Activity (SK-MEL-28 [16]): 26.4%; Activity (SK-MEL-28 [17]): 96.7%; inhibition (SK-MEL-28 [18]): Active; Activity (SK-MEL-28 [19]): 15.96%; Activity (SK-MEL-28 [20]): Dose-Dependent Effect
